Test results taken from PubChem BioAssay AID1963982 (Molecular Pharmacology Branch, DTP, NCI, 2024).

Tested on: 313798-341-R-J2-PDC spheroids, viability
Test: Anticancer human tumor 313798-341-R-J2-PDC patient-derived cervical squamous cell carcinoma cell line growth inhibition [PI3K]
Details: spheroids with HUVEC and MSC; for IC50: curve of first compound; for viability, T/C: stronger effect = lower value
In short: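 Agents were dosed from a top concentration near clinical Cmax (otherwise 10 microM) in half-log decrements, alone or combined with PI3K inhibitors. The spheroids contain tumor cells plus endothelial (HUVEC) and MSC stroma; viability is measured.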

[1] = second compound 0.00316 µM, first compound 0.0316 µM
[2] = second compound 0.00316 µM, first compound 0.1 µM
[3] = second compound 0.00316 µM, first compound 0.316 µM
[4] = second compound 0.00316 µM, first compound 1 µM
[5] = second compound 0.00316 µM, first compound 3.16 µM
[6] = second compound 0.00316 µM, first compound 10 µM
[7] = second compound 0.01 µM, first compound 0.0316 µM
[8] = second compound 0.01 µM, first compound 0.1 µM
[9] = second compound 0.01 µM, first compound 0.316 µM
[10] = second compound 0.01 µM, first compound 1 µM
[11] = second compound 0.01 µM, first compound 3.16 µM
[12] = second compound 0.01 µM, first compound 10 µM
[13] = second compound 0.0316 µM, first compound 0.0316 µM
[14] = second compound 0.0316 µM, first compound 0.1 µM
[15] = second compound 0.0316 µM, first compound 0.316 µM
[16] = second compound 0.0316 µM, first compound 1 µM
[17] = second compound 0.0316 µM, first compound 3.16 µM
[18] = second compound 0.0316 µM, first compound 10 µM
[19] = second compound 0.1 µM, first compound 0.0316 µM
[20] = second compound 0.1 µM, first compound 0.1 µM
[21] = second compound 0.1 µM, first compound 0.316 µM
[22] = second compound 0.1 µM, first compound 1 µM
[23] = second compound 0.1 µM, first compound 3.16 µM
[24] = second compound 0.1 µM, first compound 10 µM
[25] = second compound 0.316 µM, first compound 0.0316 µM
[26] = second compound 0.316 µM, first compound 0.1 µM
[27] = second compound 0.316 µM, first compound 0.316 µM
[28] = second compound 0.316 µM, first compound 1 µM
[29] = second compound 0.316 µM, first compound 3.16 µM
[30] = second compound 0.316 µM, first compound 10 µM
[31] = second compound 1 µM, first compound 0.0316 µM
[32] = second compound 1 µM, first compound 0.1 µM
[33] = second compound 1 µM, first compound 0.316 µM
[34] = second compound 1 µM, first compound 1 µM
[35] = second compound 1 µM, first compound 3.16 µM
[36] = second compound 1 µM, first compound 10 µM
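Also: spheroids exposed to compounds for seven days.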
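For viability, T/C in this document: 100% = DMSO vehicle control viability.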

SMILES: C#Cc1c(F)ccc2cc(O)cc(-c3ncc4c(N5CC6CCC(C5)N6)nc(OCC56CCCN5CC(F)C6)nc4c3F)c12 (centres undefined) + CC(Nc1ccc2c(c1)OCCn1cc(N3C(=O)OCC3C(F)F)nc1-2)C(N)=O
- IC50 (second compound 0.00316 µM): > 10 µM
- IC50 (second compound 0.01 µM): > 10 µM
- IC50 (second compound 0.0316 µM): > 10 µM
- IC50 (second compound 0.1 µM): > 10 µM
- IC50 (second compound 0.316 µM): > 10 µM
- IC50 (second compound 1 µM): > 10 µM
- viability, T/C [1]: 91.8%
- viability, T/C [2]: 96.8%
- viability, T/C [3]: 97.4%
- viability, T/C [4]: 95.5%
- viability, T/C [5]: 99.3%
- viability, T/C [6]: 99.3%
- viability, T/C [7]: 97.7%
- viability, T/C [8]: 99.9%
- viability, T/C [9]: 102%
- viability, T/C [10]: 110%
- viability, T/C [11]: 116%
- viability, T/C [12]: 98.9%
- viability, T/C [13]: 100%
- viability, T/C [14]: 113%
- viability, T/C [15]: 109%
- viability, T/C [16]: 99.1%
- viability, T/C [17]: 109%
- viability, T/C [18]: 104%
- viability, T/C [19]: 118%
- viability, T/C [20]: 94.5%
- viability, T/C [21]: 108%
- viability, T/C [22]: 104%
- viability, T/C [23]: 102%
- viability, T/C [24]: 97%
- viability, T/C [25]: 91%
- viability, T/C [26]: 81.6%
- viability, T/C [27]: 74.2%
- viability, T/C [28]: 78.8%
- viability, T/C [29]: 83%
- viability, T/C [30]: 76.9%
- viability, T/C [31]: 60.6%
- viability, T/C [32]: 62.2%
- viability, T/C [33]: 61.2%
- viability, T/C [34]: 58.9%
- viability, T/C [35]: 58.6%
- viability, T/C [36]: 45.6%

SMILES: CC1(C)CCC(Nc2ncc(C(F)(F)F)c(-c3c[nH]c4c(P(C)(C)=O)c(C#N)ccc34)n2)CN1 (centres undefined) + CC(Nc1ccc2c(c1)OCCn1cc(N3C(=O)OCC3C(F)F)nc1-2)C(N)=O
- IC50 (second compound 0.00316 µM): 0.0316 µM
- IC50 (second compound 0.01 µM): < 0.0316 µM
- IC50 (second compound 0.0316 µM): < 0.0316 µM
- IC50 (second compound 0.1 µM): < 0.0316 µM
- IC50 (second compound 0.316 µM): < 0.0316 µM
- IC50 (second compound 1 µM): < 0.0316 µM
- viability, T/C [1]: 53.1%
- viability, T/C [2]: 45.8%
- viability, T/C [3]: 42.4%
- viability, T/C [4]: 48.7%
- viability, T/C [5]: 51.6%
- viability, T/C [6]: 29.3%
- viability, T/C [7]: 49.6%
- viability, T/C [8]: 47.2%
- viability, T/C [9]: 46.1%
- viability, T/C [10]: 44.1%
- viability, T/C [11]: 49.4%
- viability, T/C [12]: 25.4%
- viability, T/C [13]: 45%
- viability, T/C [14]: 40.9%
- viability, T/C [15]: 37.9%
- viability, T/C [16]: 38.6%
- viability, T/C [17]: 41%
- viability, T/C [18]: 29.1%
- viability, T/C [19]: 36.7%
- viability, T/C [20]: 31.6%
- viability, T/C [21]: 31.1%
- viability, T/C [22]: 31.7%
- viability, T/C [23]: 30.9%
- viability, T/C [24]: 14.8%
- viability, T/C [25]: 26.4%
- viability, T/C [26]: 25.3%
- viability, T/C [27]: 24.9%
- viability, T/C [28]: 23.1%
- viability, T/C [29]: 29.3%
- viability, T/C [30]: 8.87%
- viability, T/C [31]: 21.1%
- viability, T/C [32]: 20.6%
- viability, T/C [33]: 21.5%
- viability, T/C [34]: 21.9%
- viability, T/C [35]: 23.9%
- viability, T/C [36]: 3.07%
